Where two headings read alike, the source gives them in different places.
Columns and labels:
MSTO mesothelioma cells [1] = test: MTT cell survival assay, MSTO mesothelioma cells; type: cell-based, human; conditions: for IC50: MSTO cells, 3 days incubation, MTT, read-out: IC50s (nM), inhibition of mesothelioma growth, MSTO; for Synergy index CI at ED50, MSTO / Synergy index CI at ED75, MSTO / Synergy index CI at ED90, MSTO: named drug combined with DS + Cu
Experimental: (§1) Separate incubations were performed with pemetrexed, DS/Cu (disulfiram/copper gluconate) and cisplatin for 3 days. Cell survival was determined via an MTT assay.

[2] = system: A2780 ovarian cancer cells; test: Cell survival assay, A2780 ovarian cancer cells; type: cell-based, human
2591 mesothelioma cells = test: MTT cell survival assay, 2591 mesothelioma cells; type: cell-based, human; conditions: for IC50: 2591 cells, 3 days incubation, MTT, read-out: IC50s (nM), inhibition of mesothelioma growth, 2591; for Synergy index CI at ED50, 2591 / Synergy index CI at ED75, 2591 / Synergy index CI at ED90, 2591: named drug combined with DS + Cu
Experimental: as §1

[3] = system: SKOV-3 ovarian cancer cells; test: Cell survival assay, SKOV-3 ovarian cancer cells; type: cell-based, human; conditions: cisplatin (CDDP) combined with DS + Cu
E58 mesothelioma cells = test: MTT cell survival assay, E58 mesothelioma cells; type: cell-based, human; conditions: for Synergy index CI at ED50, E58 / Synergy index CI at ED75, E58 / Synergy index CI at ED90, E58: named drug combined with DS + Cu
Experimental: as §1

Ju77 mesothelioma cells = test: MTT cell survival assay, Ju77 mesothelioma cells; type: cell-based, human; conditions: for IC50: Ju77 cells, 3 days incubation, MTT, read-out: IC50s (nM), inhibition of mesothelioma growth, Ju77; for Synergy index CI at ED50, Ju77 / Synergy index CI at ED75, Ju77 / Synergy index CI at ED90, Ju77: named drug combined with DS + Cu
Experimental: as §1

[4] = oral dose of 500 mg; cited from earlier work
MSTO mesothelioma cells [5] = test: Peritoneal MSTO mesothelioma model in CD1 nude mice; type: in vivo, mouse
Experimental: (§2) MSTO mesothelioma cells and SKVO-3 ovarian cancer cells were cultured in a DMEM medium containing 10% fetal calf serum supplemented with 10 mg/ml streptomycin and 2 mmol/L L-glutamine at 37° C. under a 5% CO2 atmosphere.
(§3) MSTO mesothelioma cells and SKVO-3 ovarian cancer cells were injected at a rate of 3×10^6/animal into female CD1 nude mice and animals were randomly divided into two groups (10 animals/group). […] Drug administration was performed three times per week. The mice were weighed three times per week. Once the experiment was complete, the animals were sacrificed via cervical dislocation. The abdominal cavities of all mice were opened to observe and assess ascites formation and abdominal wall tumors.

[6] = system: SKVO-3 ovarian cancer cells; test: Peritoneal ovarian cancer model in CD1 nude mice; type: in vivo, mouse
Experimental: as §2, §3

S180 ascites tumor cells = conditions: for Formation of ascites and masses at laparotomy: three weeks after cell injection
Experimental: S180 ascites cells were purchased from the Chinese Academy of Sciences Shanghai Cell Bank and cultured in a DMEM medium containing 10% fetal calf serum supplemented with 10 mg/ml streptomycin and 2 mmol/L L-glutamine at 37° C. under a 5% CO2 atmosphere.
S-180 cells were injected at a rate of 2.5×10^6/animal into the abdominal cavity of male Kunming mice and the animals were randomly divided into two groups (8 animals/group). […] Drug administration was performed three times per week. The mice were weighed three times per week. Once the experiment was complete, the animals were sacrificed via cervical dislocation. The abdominal cavities of all mice were opened to observe and assess ascites formation and abdominal wall tumors.

[7] = absorbed disulfiram in the bloodstream; cited from earlier work
[8] = Anticancer activity of disulfiram metabolites (unpublished data); conditions: unpublished data of the applicant
[9] = disulfiram 40 μg/animal i.p. + CuGlu oral, as of Day 90
[10] = disulfiram 5 mg/kg i.p. + CuGlu 5 mg/kg oral, three times per week, Day 21

[NH2][Pt]([NH2])([Cl])[Cl] [CDDP, cisplatin]
IC50 (MSTO mesothelioma cells [1]): 4590 nM | Synergy index CI at ED50, MSTO (MSTO mesothelioma cells [1]): 0.567 | Synergy index CI at ED75, MSTO (MSTO mesothelioma cells [1]): 0.320 | Synergy index CI at ED90, MSTO (MSTO mesothelioma cells [1]): 0.209 | IC50 ([2]; A2780 cells, 3 days incubation, read-out: IC50s (nM), ovarian cancer cells, A2780): 4590 nM | Synergy index CI at ED50, A2780 ([2]; cisplatin (CDDP) combined with DS + Cu, ED50, A2780): 0.567 | Synergy index CI at ED75, A2780 ([2]; cisplatin (CDDP) combined with DS + Cu, ED75, A2780): 0.320 | Synergy index CI at ED90, A2780 ([2]; cisplatin (CDDP) combined with DS + Cu, ED90, A2780): 0.209 | IC50 (2591 mesothelioma cells): 9160 nM | Synergy index CI at ED50, 2591 (2591 mesothelioma cells): 0.777 | Synergy index CI at ED75, 2591 (2591 mesothelioma cells): 0.868 | Synergy index CI at ED90, 2591 (2591 mesothelioma cells): 1.170 | Synergy index CI at ED50, SKOV-3 ([3]; ED50): 0.389 | Synergy index CI at ED75, SKOV-3 ([3]; ED75): 0.346 | Synergy index CI at ED90, SKOV-3 ([3]; ED90): 0.319 | Synergy index CI at ED50, E58 (E58 mesothelioma cells): 0.385 | Synergy index CI at ED75, E58 (E58 mesothelioma cells): 0.355 | Synergy index CI at ED90, E58 (E58 mesothelioma cells): 0.449 | IC50 (Ju77 mesothelioma cells): 8790 nM | Synergy index CI at ED50, Ju77 (Ju77 mesothelioma cells): 0.389 | Synergy index CI at ED75, Ju77 (Ju77 mesothelioma cells): 0.346 | Synergy index CI at ED90, Ju77 (Ju77 mesothelioma cells): 0.319

Nc1nc2[nH]cc(CCc3ccc(C(=O)N[C@@H](CCC(=O)O)C(=O)O)cc3)c2c(=O)[nH]1 [PMTX, pemetrexed]
IC50 (MSTO mesothelioma cells [1]; Homo sapiens, 72 h): 920 nM | Synergy index CI at ED50, MSTO (MSTO mesothelioma cells [1]): 0.399 | Synergy index CI at ED75, MSTO (MSTO mesothelioma cells [1]): 0.196 | Synergy index CI at ED90, MSTO (MSTO mesothelioma cells [1]): 0.102 | IC50 (2591 mesothelioma cells; Homo sapiens, 72 h): > 1000 nM | Synergy index CI at ED50, 2591 (2591 mesothelioma cells): 0.341 | Synergy index CI at ED75, 2591 (2591 mesothelioma cells): 0.253 | Synergy index CI at ED90, 2591 (2591 mesothelioma cells): 0.603 | IC50 (E58 mesothelioma cells; Homo sapiens, 72 h, E58 cells, 3 days incubation, MTT, read-out: IC50s (nM), inhibition of mesothelioma growth, E58): > 1000 nM | Synergy index CI at ED50, E58 (E58 mesothelioma cells): 0.383 | Synergy index CI at ED75, E58 (E58 mesothelioma cells): 0.384 | Synergy index CI at ED90, E58 (E58 mesothelioma cells): 0.503 | IC50 (Ju77 mesothelioma cells; Homo sapiens, 72 h): > 1000 nM | Synergy index CI at ED50, Ju77 (Ju77 mesothelioma cells): 0.308 | Synergy index CI at ED75, Ju77 (Ju77 mesothelioma cells): 0.431 | Synergy index CI at ED90, Ju77 (Ju77 mesothelioma cells): 0.603

CCN(CC)C(=S)SSC(=S)N(CC)CC [disulfiram]
Blood concentration [4]: below the detection limit | Survival rate, mesothelioma mice (MSTO mesothelioma cells [5]; disulfiram 40 μg/animal (2 mg/kg) i.p. + CuGlu 5 mg/kg oral, Day 90): 60% | Ascites, mesothelioma mice (MSTO mesothelioma cells [5]; [9]): did not reveal any ascites | Cancer nodules / masses, mesothelioma mice (MSTO mesothelioma cells [5]; [9]): only a small number of masses had formed | Survival rate, ovarian cancer mice ([6]; disulfiram 40 μg/animal (2 mg/kg) i.p. + CuGlu 5 mg/kg oral, Day 60): 90% | Cancer nodules / masses, ovarian cancer mice ([6]; disulfiram 40 μg/animal i.p. + CuGlu oral, Day 60): only a small number of masses had formed | Ascites, ovarian cancer mice ([6]; disulfiram 40 μg/animal i.p. + CuGlu oral, as of Day 60): did not reveal any ascites | Mean ascites volume per mouse (S180 ascites tumor cells; [10]): 0 ml per mouse | Number of cancer nodules per mouse (S180 ascites tumor cells; [10]): 0 nodules per mouse | Formation of ascites and masses at laparotomy (S180 ascites tumor cells; disulfiram 5 mg/kg i.p. + CuGlu 5 mg/kg oral): no formation of ascites or masses was observed | Formation of ascites and masses at laparotomy (S180 ascites tumor cells; disulfiram 5 mg/kg i.p. + CuGlu 5 mg/kg oral, listed as DS): no formation of ascites or tumor nodules | Effect on peritoneal metastasis (S180 ascites tumor cells; disulfiram 5 mg/kg i.p. with oral copper gluconate, S180 tumor-bearing mice): completely eliminate the animals' peritoneal metastasis | Body weight compared with control group (S180 ascites tumor cells; one week after injection of the cells): significantly lower than that of mice in the control group | Half-life of reduction by the glutathione reductase system in red blood cells [7]: 4 min

CCN(CC)C(=S)SC1OC(C(=O)O)C(O)C(O)C1O (stereo not shown) [glucuronic acid DDC]
Anticancer activity [8]: completely lack any anticancer activity

CCN(CC)C(=S)SC [methyl DDC]
Anticancer activity [8]: completely lack any anticancer activity

methylated disulfiram
Anticancer activity [8]: completely loses its anticancer activity

Reference: patent publication US10828271B2, “Method for treating pleuroperitoneal membrane cancers by locally injecting disulfiram preparation” (NUOMA (BEIJING) TECHNOLOGY CO., LTD, priority 2016, dated 2020)
